Experimental findings from article PMC7614683, “A small molecule PI3Kα activator for cardioprotection and neuroregeneration” (Nature, 2023) are described below.

“And” between values parts separate entries of the source, which are not always exact repeats. Identical values can stand only once.

One assay addresses T1, full length p110α/p85α (Homo sapiens, UniProt P42336).
T1 construct: Full-length human p110α was expressed either in a complex with full-length human p85α (for HTS, biochemistry and HDX-MS); 6xHis tag followed by TEV protease site (N); host or cells: Spodoptera frugiperda Sf9, baculovirus
The assay is described as follows: Surface plasmon resonance. The assay is classed as binding. As to conditions: immobilized p110α/p85α; read-out: Kd for PI3Kα by surface plasmon resonance. Here is the method:
SPR was performed with a Biacore T200, using CM7-sensor chips (Cytiva). Both reference control and analyte channels were equilibrated in HBS-P (Cytiva) supplemented with 5% (v/v) DMSO at 20°C. Full length p110α/p85α was immobilised onto the chip surface via amide coupling using the supplied kit (Cytiva) to reach an RU value of approximately 25,000 RU. Serial dilutions (1:2) of 1938 starting from 500 μM were injected over the chip for 60 s at 30 μL/min, with a 60 sec dissociation time. The data were double-referenced to the response on a blank but similarly modified flow channel and a buffer-only injection was subtracted. Any differences in the DMSO concentrations between the sample and buffer were corrected using the in-built solvent correction protocol. After reference and buffer signal correction, sensogram data were fitted using Prism 9.4.1 (GraphPad Software Inc). The responses at equilibrium (Req) of the were then fitted to a 1:1 binding model with a linear non-specific phase to determine Kd: (1) Req=(CRmax/C+Kd)+DC+B where C is the analyte concentration and Rmax is the maximum response at saturation, D is a non-specific response and B is the background resonance. Data were replotted correcting for the linear non-specific response. The binding was performed in triplicate.

The next assay has as its system rat sciatic nerve. Description: Rat sciatic nerve crush injury model. It counts as in vivo. As to conditions: 21 days, single animals. From the text: We used the rat sciatic nerve crush model of peripheral nerve injury and regeneration[82]–[84]. Adult female Sprague Dawley rats (230-280 g, n=10, Charles River, UK) were anaesthetised by isoflurane inhalation in an induction chamber (5% isoflurane in O2, 0.8 l/min). Anaesthesia was maintained with 1.5-2.5% isoflurane inhalation, and the left sciatic nerve exposed at mid-thigh level.
The nerve was crushed by application of constant pressure using fully closed sterile type 4 tweezers (TAAB) for 15 sec. This was repeated two more times at the same point, with 45° rotation between each crush. The injury site was marked with a 10/0 epineurial non-absorbant suture (Ethicon). Following injury, a single 2 μl injection of 1938 solution (5 μM in sterile H2O) or vehicle (sterile dH2O) was administered proximal to the crush site with a 10 μl Hamilton syringe. An osmotic minipump (Alzet 1004, Charles River, UK) was also implanted between the muscle layers, adjacent to the nerve oriented with the outlet nearest to the crush site, loaded with 1938 solution (100 μM in sterile H2O) or vehicle (sterile H2O). Animals were randomly assigned to groups (n=5 per group) and one experimenter was kept blind to condition for conducting functional and histological analyses. Overlying muscle layers were closed using 4/0 sutures (Ethicon) and the skin was closed with wound clips (Clay Adams). Animals were left to recover for 21 days.
At the end-point of the experiment (21 days), rats were anaesthetised and the sciatic nerve exposed as described above. A reference, ground (Natus) and recording electrode (Ambu Neuroline) were attached above the hip bone, into the tail, and into the tibialis anterior muscle respectively. A microchannel neurointerface (MNI) was placed approximately 2 mm proximal to the injury site and used to stimulate the nerve. The MNI was manufactured using a previously documented protocol. Electrode impedance of the MNI was 27.1 ±19.8 kΩ at 1k Hz. Compound muscle action potential (CMAP) was obtained by sciatic nerve stimulation with square wave pulses of 100 μsec with intensity from 1-10 mA. Stimulus was increased in 0.2 mA steps until muscle response amplitude no longer increased. CMAP amplitude was measured from peak to peak and recorded in triplicate for both the ipsilateral and contralateral side. The CMAP with the largest amplitude was selected for analysis.
A modified multipoint stimulation technique was used to calculate Motor Unit Number Estimation (MUNE)[86]–[88]. Incremental responses were obtained by delivering a submaximal stimulation of 100 μsec duration at a frequency of 1Hz while increasing the stimulus intensity in increments of 0.02 mA to obtain minimal responses. The initial response was obtained with a stimulus intensity of between 0.21 mA and 0.70 mA. […] Additional Single Motor Unit Potentials (SMUPs) were evoked by stimulation in increments of 0.02 mA to obtain a minimum of four additional increments. The position of the stimulating electrode and the location of the recording electrode was changed to allow the recording of SMUPs from a different site of the muscle. This process was repeated at least three times. The CMAP was divided by the mean magnitude of SMUPs to quantify MUNE.
After electrophysiology recordings, animals were culled with sodium pentobarbital injection according to local regulations. Sciatic nerves, including the common peroneal branch, and tibialis anterior muscles were collected and placed in 4% paraformaldehyde (PFA). Nerve samples were fixed overnight in 4% PFA at 4°C before transferring to PBS. Nerve samples were divided into sciatic nerves including the crush site, and the common peroneal branch for sectioning. Nerve samples were immersed in 30% sucrose overnight at 4°C, then snap frozen in Neg-50 frozen section medium (Thermo Scientific) using liquid nitrogen cooled isopentane. […]

[1] abbreviates: sciatic nerve 3 mm distal to injury.
Where [2] appears, read: sciatic nerve 6 mm distal to injury.

T1 sequence (P42336 whole entry): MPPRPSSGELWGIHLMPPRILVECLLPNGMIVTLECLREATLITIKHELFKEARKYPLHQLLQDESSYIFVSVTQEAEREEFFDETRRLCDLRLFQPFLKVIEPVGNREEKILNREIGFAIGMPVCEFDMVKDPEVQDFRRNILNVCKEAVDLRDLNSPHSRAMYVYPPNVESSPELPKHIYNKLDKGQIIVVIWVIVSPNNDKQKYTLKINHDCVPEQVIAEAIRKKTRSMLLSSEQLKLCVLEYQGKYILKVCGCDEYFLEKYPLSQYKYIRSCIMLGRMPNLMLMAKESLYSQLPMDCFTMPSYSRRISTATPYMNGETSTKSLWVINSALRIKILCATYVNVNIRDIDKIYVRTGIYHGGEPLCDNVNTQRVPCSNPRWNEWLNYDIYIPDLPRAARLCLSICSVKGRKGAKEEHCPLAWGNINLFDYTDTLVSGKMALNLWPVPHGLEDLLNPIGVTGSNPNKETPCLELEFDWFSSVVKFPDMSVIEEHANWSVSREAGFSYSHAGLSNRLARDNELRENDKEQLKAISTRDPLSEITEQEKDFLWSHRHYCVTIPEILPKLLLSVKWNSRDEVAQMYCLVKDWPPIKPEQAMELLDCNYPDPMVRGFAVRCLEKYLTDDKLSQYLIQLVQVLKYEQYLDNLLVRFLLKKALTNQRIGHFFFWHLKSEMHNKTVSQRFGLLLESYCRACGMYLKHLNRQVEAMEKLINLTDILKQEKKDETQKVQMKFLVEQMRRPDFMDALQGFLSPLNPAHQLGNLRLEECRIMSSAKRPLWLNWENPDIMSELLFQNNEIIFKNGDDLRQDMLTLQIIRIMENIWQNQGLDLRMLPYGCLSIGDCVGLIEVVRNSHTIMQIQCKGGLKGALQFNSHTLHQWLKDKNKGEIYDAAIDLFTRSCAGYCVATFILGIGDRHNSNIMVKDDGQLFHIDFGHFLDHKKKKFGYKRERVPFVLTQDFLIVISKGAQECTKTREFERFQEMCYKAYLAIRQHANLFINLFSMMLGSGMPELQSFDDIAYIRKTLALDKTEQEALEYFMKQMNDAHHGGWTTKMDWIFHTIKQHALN
T1 sequence (P27986 whole entry partner): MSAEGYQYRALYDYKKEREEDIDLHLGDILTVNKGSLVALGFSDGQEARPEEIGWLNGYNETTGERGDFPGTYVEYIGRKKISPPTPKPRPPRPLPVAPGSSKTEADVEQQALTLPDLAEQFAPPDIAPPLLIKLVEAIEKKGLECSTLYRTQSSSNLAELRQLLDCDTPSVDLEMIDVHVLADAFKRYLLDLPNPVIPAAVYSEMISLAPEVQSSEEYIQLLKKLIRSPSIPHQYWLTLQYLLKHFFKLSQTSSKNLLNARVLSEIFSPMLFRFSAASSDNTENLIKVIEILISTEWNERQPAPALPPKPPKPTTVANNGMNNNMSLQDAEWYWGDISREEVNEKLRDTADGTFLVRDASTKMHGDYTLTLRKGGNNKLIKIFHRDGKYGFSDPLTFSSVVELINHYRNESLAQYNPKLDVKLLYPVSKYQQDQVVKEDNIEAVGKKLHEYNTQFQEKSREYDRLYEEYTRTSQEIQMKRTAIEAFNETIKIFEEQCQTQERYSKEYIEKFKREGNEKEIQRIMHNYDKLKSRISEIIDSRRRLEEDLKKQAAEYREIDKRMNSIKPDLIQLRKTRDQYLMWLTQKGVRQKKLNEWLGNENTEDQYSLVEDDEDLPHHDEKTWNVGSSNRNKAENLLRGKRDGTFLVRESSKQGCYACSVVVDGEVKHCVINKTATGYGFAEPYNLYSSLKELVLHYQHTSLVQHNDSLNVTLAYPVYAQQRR

As to `CCN1CCN(c2ccc(Nc3cc(Nc4cccc5c4N(C(C)=O)CC5)ccn3)cc2)CC1` [Compound 1938], on full length p110α/p85α, the Kd came out at 36 ± 5 µM. Further, the “Nerve Branch ChAT (ChAT-positive motor axons, distal common peroneal nerve)” value in the assay on rat sciatic nerve was “increase in 1938-treated animals in the number of choline acetyltransferase (ChAT)-positive motor axons and 34 and 72 and 42 and 49 and 62”. In addition, in the assay on rat sciatic nerve (setting [1]), the “Axons, ChAT” value was 1228 and 1010 and 1060 and 720 and 1883; the “Axons, Neurofilament” value was 7100 and 6477 and 6615 and 8292 and 8493. Besides, in the assay with rat sciatic nerve (setting [2]), the “Axons, ChAT” value was 922 and 986 and 763 and 966 and 1022; the “Axons, Neurofilament” value is 5299 and 5863 and 4746 and 5437 and 5016. In the assay on rat sciatic nerve (tibialis anterior muscle), the “CMAP Recovery” value is “greater compound muscle action potential (CMAP) recovery and 16.9542 % contralateral and 21.941 % contralateral and 17.4705 % contralateral and 17.5154 % contralateral and 28.7184 % contralateral”; the “MUNE Recovery” value was “increased motor unit number estimation and 60.8971 % contralateral and 47.6617 % contralateral and 40.6292 % contralateral and 44.6256 % contralateral and 48.3614 % contralateral”; the NMJ is 17 % reinnervation and 31 % reinnervation and 16 % reinnervation and 23 % reinnervation and 26 % reinnervation.

For orientation: Kd means the equilibrium constant for the complex coming apart.
